Tested on: renal proximal tubule
Assay: not given
Conditions: in vivo; cited from earlier work

Compound	nephrotoxicity in humans / direct damage of the renal proximal tubule
NC[C@H]1O[C@H](O[C@H]2[C@H](O)[C@@H](O[C@H]3O[C@H](CO)[C@@H](O)[C@H](N)[C@H]3O)[C@H](N)C[C@@H]2N)[C@H](N)C[C@@H]1O [Compound 2, Tobramycin]	nephrotoxic in humans and damage directly the renal proximal tubule
CO[C@H]1/C=C/O[C@@]2(C)Oc3c(C)c(O)c4c(O)c(c(/C=N/N5CCN(C)CC5)c(O)c4c3C2=O)NC(=O)/C(C)=C\C=C\[C@H](C)[C@H](O)[C@@H](C)[C@@H](O)[C@@H](C)[C@H](OC(C)=O)[C@@H]1C [Compound 3, Rifampicin]	nephrotoxic in humans and damage directly the renal proximal tubule
COc1ccc(C[C@H](N)C(=O)N[C@H]2[C@@H](O)[C@H](n3cnc4c(N(C)C)ncnc43)O[C@@H]2CO)cc1 [Compound 5, Puromycin]	nephrotoxic in humans and damage directly the renal proximal tubule
CC(=O)OCC1=C(C(=O)O)N2C(=O)[C@@H](NC(=O)CCC[C@@H](N)C(=O)O)[C@H]2SC1 [Compound 6, Cephalosporin C]	nephrotoxic in humans and damage directly the renal proximal tubule
O=c1[nH]cc(F)c(=O)[nH]1 [Compound 7, 5-Fluorouracil]	nephrotoxic in humans and damage directly the renal proximal tubule
O=P1(NCCCl)OCCCN1CCCl (stereo not shown) [Compound 9, Ifosfamide]	nephrotoxic in humans and damage directly the renal proximal tubule
C[n+]1ccc(-c2cc[n+](C)cc2)cc1 [Compound 10, Paraquat]	nephrotoxic in humans and damage directly the renal proximal tubule
[Ge+4].[O-2].[O-2] [Compound 15, Germanium(IV) oxide]	nephrotoxic in humans and damage directly the renal proximal tubule
[Cl][Au] [Compound 16, Gold(I) chloride]	nephrotoxic in humans and damage directly the renal proximal tubule
C=CC[C@@H]1/C=C(\C)C[C@H](C)C[C@H](OC)[C@H]2O[C@@](O)(C(=O)C(=O)N3CCCC[C@H]3C(=O)O[C@H](/C(C)=C/[C@@H]3CC[C@@H](O)[C@H](OC)C3)[C@H](C)[C@@H](O)CC1=O)[C@H](C)C[C@@H]2OC [Compound 19, Tacrolimus]	nephrotoxic in humans and damage directly the renal proximal tubule
CC1=C2C(=CO[C@H](C)[C@H]2C)C(O)=C(C(=O)O)C1=O [Compound 21, Citrinin]	nephrotoxic in humans and damage directly the renal proximal tubule
CCOc1ccc(NC(C)=O)cc1 [Compound 24, Phenacetin]	nephrotoxic in humans, but do not damage directly the renal proximal tubule
[Cl-].[Li+] [Compound 28, Lithium chloride]	nephrotoxic in humans, but do not damage directly the renal proximal tubule
Cl[C@H]1[C@H](Cl)[C@@H](Cl)[C@@H](Cl)[C@H](Cl)[C@H]1Cl [Compound 29, Lindane]	nephrotoxic in humans, but do not damage directly the renal proximal tubule
OCCO [Compound 30, Ethylene glycol]	nephrotoxic in humans, but do not damage directly the renal proximal tubule
CC(C)[C@H](N)C(=O)OCCOCn1cnc2c(=O)[nH]c(N)nc21 [Compound 31, Valacyclovir]	nephrotoxic in humans, but do not damage directly the renal proximal tubule
CCC[C@@H]1C[C@@H](C(=O)N[C@@H]([C@H]2O[C@H](SC)[C@H](O)[C@@H](O)[C@H]2O)[C@@H](C)O)N(C)C1 [Compound 32, Lincomycin]	nephrotoxic in humans, but do not damage directly the renal proximal tubule
NCC(=O)O [Compound 35, Glycine]	non-nephrotoxic in humans
C[C@@H]1C[C@H]2[C@@H]3CCC4=CC(=O)C=C[C@]4(C)[C@@]3(F)[C@@H](O)C[C@]2(C)[C@@]1(O)C(=O)CO [Compound 36, Dexamethasone]	non-nephrotoxic in humans
COc1ccc2[nH]cc(CCNC(C)=O)c2c1 [Compound 37, Melatonin]	non-nephrotoxic in humans
N[C@@H](Cc1ccc(O)c(O)c1)C(=O)O [Compound 38, Levodopa (DOPA)]	non-nephrotoxic in humans
N[C@@H](Cc1cc(I)c(Oc2ccc(O)c(I)c2)c(I)c1)C(=O)O [Compound 39, Triiodothyronine]	non-nephrotoxic in humans
Gentamicin	nephrotoxic in humans and damage directly the renal proximal tubule

Tested on: human primary renal proximal tubular cells (HPTC)
Assay: HPTC exposed to test compound, nuclear staining and F-actin detection, morphology and cell numbers
Conditions: HPTC isolated from fresh human kidney samples; 0.2 mg/ml; 16 hours

Compound	cell numbers (number of cell nuclei)	morphological changes (F-actin)
Gentamicin	decrease in cell numbers	morphological changes

From US9568466B2, “In vitro assay for predicting renal proximal tubular cell toxicity” (priority 2012, dated 2017)
